This series in a line: method code SF-AS, from DOI: 10.1016/0045-6535(95)00342-8.

`CC(C)OC(=O)CC(Sc1ccccc1)C(=O)OC(C)C` (stereo not drawn) registered a logP of 3.53. Next, `COC(=O)CC(C)Sc1ccccc1` (stereo not drawn): 2.61. In the case of `CCOC(=O)CCSc1ccccc1`, the logP is 2.72.

The compound `COC(=O)CC(CSc1ccccc1)C(=O)OC` (stereo not drawn) registered a logP of 1.96. Regarding `CCOC(=O)CC(Sc1ccccc1)C(=O)OCC` (stereo not drawn), the logP is 2.6.

For the compound `CC(C)OC(=O)CSc1ccccc1`, the logP worked out at 2.53. `CCCOC(=O)CSc1ccccc1` had a logP of 2.69. Consider `CCCCOC(=O)CSc1ccccc1`, for which the logP was determined as 3.26. The result for `COC(=O)C(C)CSc1ccccc1` (stereo not drawn) reads 2.63; that for `CCOCCOC(=O)CSc1ccccc1`, 1.73; that for `CC(C)COC(=O)CSc1ccccc1`, 3.02.

Turning to `COC(=O)CC(Sc1ccccc1)C(=O)OC` (stereo not drawn), the logP came out at 1.42.

As to `CCOC(=O)CSc1ccccc1`, the logP came to 2.12. Next, `COCCOC(=O)CSc1ccccc1`: 1.02. Consider `COC(=O)CCSc1ccccc1`, for which the lipophilicity (logP) came out at 2.04. Regarding `CCOC(=O)CC(CSc1ccccc1)C(=O)OCC` (stereo not drawn), the logP is 2.98. Next, `CC(C)OC(=O)CC(CSc1ccccc1)C(=O)OC(C)C` (stereo not drawn): 3.95; `COC(=O)CSc1ccccc1`: 1.5.

By logP is commonly meant the decadic logarithm of the partition coefficient of the neutral form, usually between octanol and water. The low end stands for lower lipophilicity, the high end for higher lipophilicity.

(Values after the SangsterLogP compilation.)
